Literature values as cited in US5304296A, “Glass pH electrodes” (National Power PLC, priority 1990, dated 1994).

- pKa at 20° C.: 6.62
Structure (SMILES): NC(=O)CN(CC(=O)O)CC(=O)O [ADA, N-(2-acetamido)iminodiacetic acid]
